What was measured:
external ear = conditions: in vivo; cited from earlier work
[1] = Reactivity/compatibility of PVP-I with other active ingredients

consumption of the agent on reaction with PVP-I ([1]; mixed with PVP-I) | Compound | concentration known to be safe for use in the external ear (and inner ear through a ruptured tympanic membrane) (external ear) | available iodine in the PVP-I complex ([1]; with Ketorolac, depending on the ratio between Ketorolac and PVP-I)
– | 1-Vinyl-2-pyrrolidinone polymers, iodine complex [PVP-I] | up to 10.0 % (w/w, aqueous) | reduced significantly
completely consumed | O=C(c1ccccc1)c1ccc2n1CCC2C(=O)O (stereo not drawn) [Ketorolac] | – | –

From patent publication US20130089510A1, “OTIC COMPOSITIONS FOR THE TREATMENT OF INFECTIONS OF THE INTERNAL AND EXTERNAL EAR IN MAMMALS” (Foresight Biotherapeutics, Inc., priority 2008, published 2013)
